Source: patent EP4759807A1, “PROTEOLYSIS TARGETING CHIMERA COMPOUND FOR DEGRADING IRAK4 AND USE THEREOF” (Shenzhen Zhongge Biological Technology Co., Ltd., priority 2023, dated 2025)
Structures can show the parent of a compound that is named as a salt.

Legend:
IRAK4 [1] = target: T1, IRAK4 (Homo sapiens, UniProt Q9NWZ3); experiment: WB detection of proteolysis (Western Blot, THP-1 cells); type: cell-based
T1 sequence (Q9NWZ3 1-460): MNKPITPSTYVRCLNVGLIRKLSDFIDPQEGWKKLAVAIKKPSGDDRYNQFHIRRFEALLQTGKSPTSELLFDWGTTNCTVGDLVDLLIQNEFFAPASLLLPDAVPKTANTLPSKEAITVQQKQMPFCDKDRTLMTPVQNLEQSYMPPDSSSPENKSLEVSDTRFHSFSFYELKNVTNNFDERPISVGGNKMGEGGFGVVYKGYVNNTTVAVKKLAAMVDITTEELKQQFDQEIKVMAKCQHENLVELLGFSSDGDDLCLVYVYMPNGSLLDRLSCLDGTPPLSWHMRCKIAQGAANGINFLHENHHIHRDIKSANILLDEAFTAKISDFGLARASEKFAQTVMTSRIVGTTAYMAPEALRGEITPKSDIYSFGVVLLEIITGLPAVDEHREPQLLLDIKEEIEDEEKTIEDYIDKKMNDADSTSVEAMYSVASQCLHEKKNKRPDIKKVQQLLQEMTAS
Summary of the method: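 IRAK4 level in RIPA lysates read by Western blot with Odyssey imaging; values from bell-shaped non-linear fit with two four-parameter sections (Plateau1, Plateau2, Dip, LogEC50_1/2, nH1/2).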

IRAK4 [2] = target: T1, IRAK4; experiment: Hibit fluorescence detection of proteolysis (IRAK4-HiBiT in HEK293T cells); type: cell-based; parameters: host or cells: HEK293T (ATCC); conditions: for Dmax: HEK-293T; for DC50: IRAK4-HiBiT, HEK293T cells, 24 h
Summary of the method: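 Degradation read-out: luminescence from lytic HiBiT detection (15 min, room temperature) after 24 h compound exposure (37 °C, 5% CO2) of HEK293T cells transiently expressing IRAK4 fused to a HiBiT tag. Data fitted to a bell-shaped four-parameter model giving two EC50 values.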

[3] = Western Blot, THP-1 cells, 24 h, read-out: DC50
[4] = Western Blot, THP-1 cells, 24 h, read-out: Dmax

Row | Compound | DC50 (IRAK4 [1]; [3]) [nM] | Dmax (IRAK4 [1]; [4]) [%] | Dmax (IRAK4 [2]) [%] | DC50 (IRAK4 [2]) [nM] | Dmax (IRAK4 [1]; THP-1) [%] | DC50 (IRAK4 [1]; Western Blot, THP-1 cells, 24 h) [nM]
1 | Cn1c(=O)n(C2CCC(=O)NC2=O)c2cccc(C3CCN(C[C@H]4CC[C@H](n5cc(-n6cc(-c7ccc8cc(C(N)=O)cnn78)nn6)c(C(F)F)n5)CC4)CC3)c21 (stereo partly drawn) [Example 84, 7-(1-(3-(difluoromethyl)-1-((1r,4r)-4-((4-(1-(2,6-dioxopiperidin-3-yl)-3-methyl-2-oxo-2,3-dihydro-1H-benzo[d]imidazol-4-yl)piperidin-1-yl)methyl)cyclohexyl)-1H-pyrazol-4-yl)-1H-1,2,3-triazol-4-yl)pyrrolo[1,2-b]pyridazine-3-carboxamide] | < 10 | < 60 | > 80 | < 0.5 |  | 
2 | Cn1c(=O)n(C2CCC(=O)NC2=O)c2cccc(N3CCC4(CCN(C[C@H]5CC[C@H](n6cc(-n7cc(-c8ccc9cc(C(N)=O)cnn89)nn7)c(C(F)F)n6)CC5)CC4)CC3)c21 (stereo partly drawn) [Example 85, 7-(1-(3-(difluoromethyl)-1-((1r,4r)-4-((9-(1-(2,6-dioxopiperidin-3-yl)-3-methyl-2-oxo-2,3-dihydro-1H-benzo[d]imidazol-4-yl)-3,9-diazaspiro[5.5]undecan-3-yl)methyl)cyclohexyl)-1H-pyrazol-4-yl)-1H-1,2,3-triazol-4-yl)pyrrolo[1,2-b]pyridazine-3-carboxamide] | < 10 | > 70 | > 80 | < 0.5 |  | 
3 | C[C@H]1CN(c2cccc3c2n(C)c(=O)n3C2CCC(=O)NC2=O)CCN1C[C@H]1CC[C@H](n2cc(-n3cc(-c4ccc5cc(C(N)=O)cnn45)nn3)c(C(F)F)n2)CC1 (stereo partly drawn) [Example 96] | < 10 | > 70 | > 80 | < 0.5 |  | 
4 | Cn1c(=O)n(C2CCC(=O)NC2=O)c2cccc(N3CCC4(CCN(C[C@H]5CC[C@H](n6cc(-n7cc(-n8ccc9cc(C(N)=O)cnc98)nn7)c(C(F)F)n6)CC5)C4)CC3)c21 (stereo partly drawn) [Example 97, 1-(1-(3-(difluoromethyl)-1-((1r,4r)-4-((8-(1-(2,6-dioxopiperidin-3-yl)-3-methyl-2-oxo-3,3-dihydro-1H-benzo[d]imidazol-4-yl)-2,8-diazaspiro[4.5]dec-2-yl)methyl)cyclohexyl)-1H-pyrazol-4-yl)-1H-1-1,2,3-triazolyl)-1H-pyrrolo[2,3-b]pyridine-5-carboxamide] |  |  | > 80 | < 0.5 | > 70 | < 10
5 | Cn1c(=O)n(C2CCC(=O)NC2=O)c2cccc(N3CCC(N4CCN(C[C@H]5CC[C@H](n6cc(-n7cc(-n8ccc9cc(C(N)=O)cnc98)nn7)c(C(F)F)n6)CC5)CC4)CC3)c21 (stereo partly drawn) [Example 98, 1-(1-(3-(difluoromethyl)-1-((1r,4r)-4-((4-(1-(2-(2,6-dioxopiperidin-3-yl)-3-methyl-2-oxo-3,3-dihydro-1H-benzo[d]imidazol-4-yl)piperidin-4-yl)piperazin-1-yl)methyl)cyclohexyl)-1H-pyrazol-4-yl)-1H-1-1,2,3-triazole)-1H-pyrrolo[2,3-b]pyridine-5-carboxamide] | < 10 | > 70 | > 80 | < 0.5 |  | 
6 | Cn1c(=O)n(C2CCC(=O)NC2=O)c2cccc(N3CCC4(CCN(C[C@H]5CC[C@H](n6cc(-n7cc(-n8ccc9cc(C(N)=O)cnc98)nn7)c(C(F)F)n6)CC5)CC4)CC3)c21 (stereo partly drawn) [Example 99] | 10 to 30 | < 60 | > 80 | < 0.5 |  | 
7 | Cn1c(=O)n(C2CCC(=O)NC2=O)c2cccc(N[C@H]3CC[C@H](N(C)C[C@H]4CC[C@H](n5cc(-n6cc(-n7ccc8cc(C(N)=O)cnc87)nn6)c(C(F)F)n5)CC4)CC3)c21 (stereo partly drawn) [Example 102] | 10 to 30 | < 60 | > 80 | < 0.5 |  | 
8 | Cn1c(=O)n(C2CCC(=O)NC2=O)c2cccc(N3CCC4(CCN(C[C@H]5CC[C@H](n6cc(-n7cc(-n8ccc9cc(C(N)=O)cnc98)nn7)c(C(F)F)n6)CC5)CC4)C3)c21 (stereo partly drawn) [Example 103, 1-(1-(3-(difluoromethyl)-1-((1r,4r)-4-(2-(1-(2,6-dioxopiperidin-3-yl)-3-methyl-2-oxo-2,3-dihydro-1H-benzo[d]imidazol-4-yl)-2,8-diazaspiro[4.5]dec-8-yl)methyl)cyclohexyl)-1H-pyrazol-4-yl)-1H-1,2,3-triazol-4-yl] | < 10 | < 60 | > 80 | < 0.5 |  | 
9 | Cn1c(=O)n(C2CCC(=O)NC2=O)c2cccc(N3CCC4(CCN(C[C@H]5CC[C@H](n6cc(-n7cc(-c8cnn9ccc(NCC%10CC%10)nc89)nn7)c(C(F)F)n6)CC5)CC4)CC3)c21 (stereo partly drawn) [Example 108] | < 10 | > 70 | > 80 | < 0.5 |  | 
10 | Cn1c(=O)n(C2CCC(=O)NC2=O)c2cccc(N3CCC4(CCN(C[C@H]5CC[C@H](n6cc(-n7cc(-c8cnn9ccc(NCC%10CC%10)nc89)nn7)c(C(F)F)n6)CC5)C4)CC3)c21 (stereo partly drawn) [Example 113] | > 30 | 60 to 70 | > 80 | < 0.5 |  | 
11 | Cn1c(=O)n(C2CCC(=O)NC2=O)c2cccc(N3CCN(C[C@H]4CC[C@H](n5cc(-n6cc(-c7cnn8ccc(N9CCC[C@H](N)C9)nc78)nn6)c(C(F)F)n5)CC4)CC3)c21 (stereo partly drawn) [Example 115] | < 10 | > 70 | > 80 | < 0.5 |  | 
12 | Cn1c(=O)n(C2CCC(=O)NC2=O)c2cccc(N3CCC4(CCN(C[C@H]5CC[C@H](n6cc(-n7cc(-c8cnn9ccc(N%10CCC[C@H](N)C%10)nc89)nn7)c(C(F)F)n6)CC5)CC4)C3)c21 (stereo partly drawn) [Example 116] | 10 to 30 | 60 to 70 | > 80 | 0.5 to 1 |  | 
13 | Cn1c(=O)n(C2CCC(=O)NC2=O)c2cccc(N[C@H]3CC[C@H](N(C)C[C@H]4CC[C@H](n5cc(-n6cc(-c7cnn8ccc(N9CCC[C@H](N)C9)nc78)nn6)c(C(F)F)n5)CC4)CC3)c21 (stereo partly drawn) [Example 118] | 10 to 30 | > 70 | > 80 | < 0.5 |  | 
14 | Cn1c(=O)n(C2CCC(=O)NC2=O)c2cccc(N3CCC4(CCN(C[C@H]5CC[C@H](n6cc(-n7cc(-c8cnn9ccc(N%10CCC[C@H](N)C%10)nc89)nn7)c(C(F)F)n6)CC5)C4)CC3)c21 (stereo partly drawn) [Example 119] | 10 to 30 | > 70 | > 80 | 0.5 to 1 |  | 
15 | Cn1c(=O)n(C2CCC(=O)NC2=O)c2cccc(N3CCC4(CCN(C[C@H]5CC[C@H](n6cc(-n7cc(-c8cnn9ccc(N%10CCC[C@H](N)C%10)nc89)nn7)c(C(F)F)n6)CC5)CC4)CC3)c21 (stereo partly drawn) [Example 120] | < 10 | > 70 | > 80 | 0.5 to 1 |  | 
16 | Cn1c(=O)n(C2CCC(=O)NC2=O)c2cccc(N3CCC(N4CCN(C[C@H]5CC[C@H](n6cc(-n7cc(-c8cnn9ccc(N[C@H]%10CCCC[C@H]%10O)nc89)nn7)c(C(F)F)n6)CC5)CC4)CC3)c21 (stereo partly drawn) [Example 122] | < 10 | > 70 | > 80 | < 0.5 |  | 
17 | Cn1c(=O)n(C2CCC(=O)NC2=O)c2cccc(N3CCC4(CCN(C[C@H]5CC[C@H](n6cc(-n7cc(-c8cnn9ccc(N%10CCC(C)(O)CC%10)nc89)nn7)c(C(F)F)n6)CC5)CC4)C3)c21 (stereo partly drawn) [Example 123] | < 10 | < 60 | > 80 | < 0.5 |  | 
18 | Cn1c(=O)n(C2CCC(=O)NC2=O)c2cccc(N3CCC(N4CCN(C[C@H]5CC[C@H](n6cc(-n7cc(-c8cnn9ccc(N%10CCC(C)(O)CC%10)nc89)nn7)c(C(F)F)n6)CC5)CC4)CC3)c21 (stereo partly drawn) [Example 124] | < 10 | 60 to 70 | > 80 | < 0.5 |  | 
19 | Cn1c(=O)n(C2CCC(=O)NC2=O)c2cccc(N3CCC(N4CCN(C[C@H]5CC[C@H](n6cc(-n7cc(-c8cnn9ccc(NCCC(C)(C)O)nc89)nn7)c(C(F)F)n6)CC5)CC4)CC3)c21 (stereo partly drawn) [Example 125] | < 10 | > 70 | > 80 | < 0.5 |  | 
20 | Cn1c(=O)n(C2CCC(=O)NC2=O)c2cccc(N3CCC4(CCN(C[C@H]5CC[C@H](n6cc(-n7cc(-c8cnn9ccc(NCCC(C)(C)O)nc89)nn7)c(C(F)F)n6)CC5)CC4)CC3)c21 (stereo partly drawn) [Example 126] | < 10 | > 70 | > 80 | < 0.5 |  | 
21 | Cn1c(=O)n(C2CCC(=O)NC2=O)c2cccc(N3CCC(N4CCN(C[C@H]5CC[C@H](n6cc(-n7cc(-c8cnn9ccc(N%10CCNCC%10)nc89)nn7)c(C(F)F)n6)CC5)CC4)CC3)c21 (stereo partly drawn) [Example 127, 3-(4-(4-(4-(((1r,4r)-4-(3-(difluoromethyl)-4-(4-(5-(piperazin-1-yl))pyrazolo[1,5-a]pyrimidin-3-yl)-1H-1,2,3-triazol-1-yl)-1H-pyrazol-1-yl)cyclohexyl)methyl)piperazin-1-yl)piperidin-1-yl)-3-methyl-2-oxo-2,3-dihydro-1H-benzo[d]imidazol-1-yl)piperidine-2,6-dione dihydrochloride] | 10 to 30 | > 70 | > 80 | < 0.5 |  | 
